Source: patent publication US7507704B1, “Receptor modulated cancer protocols” (priority 2002, dated 2009)

Assays:
Metastatic Breast Cancer [1] = assay: Skipper log cell kill model projection for trastuzumab regimens (antagonistic scenario); conditions: estimated from AC group, 23%÷68%
Metastatic Breast Cancer [2] = conditions: cytotoxics q 21 days × 6, trastuzumab q week, actual Phase III data; cited from earlier work
[3] = rifampicin co-administered with erlotinib; cited from earlier work
[4] = in vivo; cited from earlier work

O=P1(N(CCCl)CCCl)NCCCO1 (stereo not shown) [C, cyclophosphamide]
"stand alone" tumor kill rate (Metastatic Breast Cancer [1]): 34%

CC(=O)O[C@H]1C(=O)[C@@]2(C)[C@H]([C@H](OC(=O)c3ccccc3)[C@]3(O)C[C@H](OC(=O)[C@H](O)[C@@H](NC(=O)c4ccccc4)c4ccccc4)C(C)=C1C3(C)C)[C@]1(OC(C)=O)CO[C@@H]1C[C@@H]2O [Paclitaxel]
Median Survival (Metastatic Breast Cancer [2]): 18.4 months

CO[C@H]1/C=C/O[C@@]2(C)Oc3c(C)c(O)c4c(O)c(c(/C=N/N5CCN(C)CC5)c(O)c4c3C2=O)NC(=O)/C(C)=C\C=C\[C@H](C)[C@H](O)[C@@H](C)[C@@H](O)[C@@H](C)[C@H](OC(C)=O)[C@@H]1C [Rifampicin]
increased clearance of erlotinib [3]: 3 fold

CC/C(=C(\c1ccccc1)c1ccc(OCCN(C)C)cc1)c1ccccc1 [Tamoxifen]
plasma concentration half life [4]: 120 to 170 h
